Series [1] deals with pSTAT3 (Y705). The experiment in a line: Western blot of phosphorylated STAT3 in BTSCs. It counts as cell-based, human. The settings on record: for suppression of pSTAT3 (Y705): 1 μM. The source says:
Blots were stained with antibodies: phospho-Y705, phospho-S727, Bcl-xL, cyclin D1, PARP and Actin. Bands were visualized with the ECL PLUS™ Western Blotting Detection System and […]™ (Amersham). […] BTSC spheres were lysed in modified RIPA buffer supplemented with Complete Mini protease (Roche) and Halt phosphatase (Thermo Scientific) inhibitor cocktails. […] Blots were stained with the following antibodies: phospho-STAT3 Y705 (1:1000, Cell Signalling Technology), phospho-STAT3 S727 (1:1000, Cell Signalling Technology), STAT3 (1:1000, Santa Cruz Biotechnology), Bcl-xL (1:1000, Cell Signalling Technology), cyclin D1 (1:1000, Cell Signalling Technology) PARP (1:1000, Cell Signalling Technology) and Actin (1:2500, Santa Cruz Biotechnology). HRP conjugated secondary antibodies, goat anti-rabbit (Cell Signalling Technology) were used at 1:2000 and donkey anti-mouse, donkey anti-goat, and goat anti-rabbit, (Calbiochem) were used at 1:6000. Bands were visualized with the ECL Plus Western Blotting Detection System and Hyperfilm (Amersham).
A general note: In western blotting, separated proteins are transferred to a membrane and probed.

Series [2] concerns the target T1, c-Src (Homo sapiens, UniProt P12931).
T1 construct: purchased Reaction Biology Corporation
The experiment in a line: HotSpot radiometric kinase assay, c-Src. The format is biochemical. The following applies: 5 uM compound, 10 μM ATP, duplicate (Data 1, Data 2); for remaining activity at 5 µM: read-out: % Enzyme activity relative to DMSO (control), c-Src. On the procedure: (§1) Briefly, this assay employs a radiometric detection system to measure kinase phosphoryl transfer activity.
(§2) Test compound was evaluated at a single dose of 5 μM in duplicate mode. […] Reactions were carried out at 10 μM ATP.
(§3) Preliminary screen against AKT, c-Src, ERK1, JaK1 and JaK2 was performed at Reaction Biology Corporation (www.reactionbiology.com, Malvern, Pa.) using the “HotSpot” assay platform. Specific kinase/substrate pairs along with their required cofactors were prepared in reaction buffer; 20 mM Hepes pH 7.5, 10 mM MgCl2, 1 mM EGTA, 0.02% Brij35, 0.02 mg/ml BSA, 0.1 mM Na3VO4, 2 mM DTT, 1% DMSO. The screen was completed in duplicate at a single concentration of 5 μM. The reaction well with the subject compound was treated with a mixture of ATP (Sigma, St. Louis Mo.) and ^33P ATP (Perkin Elmer, Waltham Mass.) to a final concentration of 10 μM. […] Reaction wells were kept at room temperature for 120 minutes, followed by spotting each of the reactions onto P81 ion exchange filter paper (Whatman Inc., Piscataway, N.J.). […] Background was subtracted using control reactions and the kinase activity data was expressed as the percent remaining kinase activity in test samples compared to vehicle (dimethyl sulfoxide) reactions. All IC50 values (table 3) and curve fitting were produced using Prism (GraphPad Software) (FIG. 5).

The target in series [3] is T2, AKT1 (Homo sapiens, UniProt P31749).
T2 construct: purchased Reaction Biology Corporation
T2 sequence (P31749 whole entry): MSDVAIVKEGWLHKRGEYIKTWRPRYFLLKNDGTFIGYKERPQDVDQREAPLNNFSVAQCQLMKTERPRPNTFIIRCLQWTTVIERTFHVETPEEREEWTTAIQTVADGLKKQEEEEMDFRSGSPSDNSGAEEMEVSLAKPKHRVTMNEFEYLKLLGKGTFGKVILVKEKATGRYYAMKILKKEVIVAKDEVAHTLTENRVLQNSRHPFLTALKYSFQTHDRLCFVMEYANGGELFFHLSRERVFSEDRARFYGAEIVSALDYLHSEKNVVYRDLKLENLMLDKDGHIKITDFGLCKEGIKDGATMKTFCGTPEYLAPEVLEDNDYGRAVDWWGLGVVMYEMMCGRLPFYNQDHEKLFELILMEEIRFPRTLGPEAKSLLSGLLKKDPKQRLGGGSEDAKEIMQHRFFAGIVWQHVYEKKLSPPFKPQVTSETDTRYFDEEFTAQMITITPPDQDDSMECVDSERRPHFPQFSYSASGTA
The experiment in a line: HotSpot radiometric kinase assay, AKT1. The settings on record: 5 uM compound, 10 μM ATP, duplicate (Data 1, Data 2); for remaining activity at 5 µM: read-out: % Enzyme activity relative to DMSO (control), AKT1. The format is biochemical.

Series [4] has as its target T3, JAK1 (Homo sapiens, UniProt P23458).
T3 construct: purchased Reaction Biology Corporation
As to the kind of experiment: HotSpot radiometric kinase assay, JAK1. The format is biochemical. The settings on record: 5 uM compound, 10 μM ATP, duplicate (Data 1, Data 2); for remaining activity at 5 µM: read-out: % Enzyme activity relative to DMSO (control), JAK1. On the procedure: as §1, §2, §3

Series [5] has as its system BTSC68EF. The experiment in a line: alamarBlue cell viability, BTSC 68EF. The format is cell-based, human. The settings on record: Homo sapiens, read-out: 68EF IC50 (μM). The procedure, abridged:
(§4)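 Patient-derived GBM brain tumour stem cells, dissociated spheres seeded at 1500 cells/96-well, or 3000 cells/96-well in one setup. Drug or DMSO vehicle added one day after plating. Viability read by alamarBlue after 72 hrs, triplicate wells.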

Series [6] has as its system BTSCs. As to the kind of experiment: alamarBlue cytotoxicity across BTSC lines. It counts as cell-based, human. The following applies: Homo sapiens; for EC50: read-out: EC50s across all 8 BTSCs evaluated; for IC50: read-out: IC50 values of the top four ranked compounds against BTSCs. On the procedure:
First, the library was screened for biological activity against a set of three representative GBM BTSCs derived from GBM patients, including the very aggressive GBM BTSC lines, BTSC73M, BTSC30M, BTSC68EF. Dissociated BTSC spheres were seeded at 1500 cells/96-well and treated with drug compound or vehicle (DMSO) one day after plating. Cell viability following drug treatment was assessed after 72 hrs using the ALAMARBLUE™ assay (Invitrogen) according to the manufacturer's instructions. All culture experiments were performed in triplicate with a minimum of three wells per condition.
BTSC spheres were dissociated to single cells with the enzyme Accumax (Innovative Technologies), seeded at 1500 cells/96-well and treated with drug or vehicle (DMSO) one day after plating. […] BTSC spheres were dissociated to single cells as above and plated in 96 well plates in triplicate at 3000 cells/96-well. […] Cell viability following drug treatment was assessed three days later using the ALAMARBLUE™ assay (Invitrogen) according to the manufacturer's instructions. All culture experiments were performed in triplicate with a minimum of three wells per condition.
In general terms: Resazurin is reduced to fluorescent resorufin, in cell work by metabolically active cells.

In series [7] the test system is BTSC73M. As to the kind of experiment: alamarBlue cell viability, BTSC 73M. It counts as cell-based, human. The settings on record: Homo sapiens. The method, boiled down:
as §4

Series [8] concerns normal human fetal astrocytes (HF 2003, HF 2006, HF 2009, HF 2013). As to the kind of experiment: toxicity in normal human fetal astrocytes. The format is cell-based. The settings on record: concentrations of up to 5 μM. On the procedure: Given the nM cytoxicity, these compounds were assayed for biological effects in healthy cells.
GBM BTSCs were cultured from a series of tumor specimens obtained following informed consent from adult GBM patients during their operative procedure as previously described (Kelly et al, Stem Cells 2009) and approved by the University of Calgary Ethics Review Board. Briefly, BTSC cultures were initiated in serum-free defined culture medium (SFM) and gave rise to nonadherent spheres after 7 to 21 days in culture. Primary tumor spheres were expanded for several passages and then cryopreserved in 10% DMSO (Sigma Aldrich) in serum-free defined medium until use in experiments. Human fetal neural stem cells were also cultured as previously described and induced to differentiate into astrocytes by addition of 10% fetal bovine serum and removal of EGF, FGF-2 and heparan sulfate.

For series [9], the system named is BTSC30M. The experiment in a line: alamarBlue cell viability, BTSC 30M. The settings on record: Homo sapiens. It counts as cell-based, human. The method, boiled down:
as §4

[10] abbreviates: remaining activity, listed as SH-05-07.
Setting [11] is: read-out: IC50 (nM) in BTSC 30M.

“Also recorded” adds a separate entry of the source. Read-outs that look alike come from different tables or passages of the source.

T1 sequence (P12931 whole entry): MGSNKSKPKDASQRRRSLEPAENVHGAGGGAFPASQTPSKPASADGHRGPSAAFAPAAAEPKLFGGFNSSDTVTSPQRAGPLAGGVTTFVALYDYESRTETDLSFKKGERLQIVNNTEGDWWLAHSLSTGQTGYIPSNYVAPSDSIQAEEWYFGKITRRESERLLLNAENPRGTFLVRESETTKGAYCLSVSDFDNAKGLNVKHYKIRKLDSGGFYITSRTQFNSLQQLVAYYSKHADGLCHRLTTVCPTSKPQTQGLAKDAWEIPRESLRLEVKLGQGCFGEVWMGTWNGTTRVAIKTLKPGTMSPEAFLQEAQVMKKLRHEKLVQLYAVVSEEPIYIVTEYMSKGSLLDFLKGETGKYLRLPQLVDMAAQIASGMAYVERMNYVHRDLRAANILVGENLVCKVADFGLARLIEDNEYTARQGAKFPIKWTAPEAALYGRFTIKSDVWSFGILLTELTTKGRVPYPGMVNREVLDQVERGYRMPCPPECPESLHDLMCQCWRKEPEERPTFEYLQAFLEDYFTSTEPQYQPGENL
T3 sequence (P23458 whole entry): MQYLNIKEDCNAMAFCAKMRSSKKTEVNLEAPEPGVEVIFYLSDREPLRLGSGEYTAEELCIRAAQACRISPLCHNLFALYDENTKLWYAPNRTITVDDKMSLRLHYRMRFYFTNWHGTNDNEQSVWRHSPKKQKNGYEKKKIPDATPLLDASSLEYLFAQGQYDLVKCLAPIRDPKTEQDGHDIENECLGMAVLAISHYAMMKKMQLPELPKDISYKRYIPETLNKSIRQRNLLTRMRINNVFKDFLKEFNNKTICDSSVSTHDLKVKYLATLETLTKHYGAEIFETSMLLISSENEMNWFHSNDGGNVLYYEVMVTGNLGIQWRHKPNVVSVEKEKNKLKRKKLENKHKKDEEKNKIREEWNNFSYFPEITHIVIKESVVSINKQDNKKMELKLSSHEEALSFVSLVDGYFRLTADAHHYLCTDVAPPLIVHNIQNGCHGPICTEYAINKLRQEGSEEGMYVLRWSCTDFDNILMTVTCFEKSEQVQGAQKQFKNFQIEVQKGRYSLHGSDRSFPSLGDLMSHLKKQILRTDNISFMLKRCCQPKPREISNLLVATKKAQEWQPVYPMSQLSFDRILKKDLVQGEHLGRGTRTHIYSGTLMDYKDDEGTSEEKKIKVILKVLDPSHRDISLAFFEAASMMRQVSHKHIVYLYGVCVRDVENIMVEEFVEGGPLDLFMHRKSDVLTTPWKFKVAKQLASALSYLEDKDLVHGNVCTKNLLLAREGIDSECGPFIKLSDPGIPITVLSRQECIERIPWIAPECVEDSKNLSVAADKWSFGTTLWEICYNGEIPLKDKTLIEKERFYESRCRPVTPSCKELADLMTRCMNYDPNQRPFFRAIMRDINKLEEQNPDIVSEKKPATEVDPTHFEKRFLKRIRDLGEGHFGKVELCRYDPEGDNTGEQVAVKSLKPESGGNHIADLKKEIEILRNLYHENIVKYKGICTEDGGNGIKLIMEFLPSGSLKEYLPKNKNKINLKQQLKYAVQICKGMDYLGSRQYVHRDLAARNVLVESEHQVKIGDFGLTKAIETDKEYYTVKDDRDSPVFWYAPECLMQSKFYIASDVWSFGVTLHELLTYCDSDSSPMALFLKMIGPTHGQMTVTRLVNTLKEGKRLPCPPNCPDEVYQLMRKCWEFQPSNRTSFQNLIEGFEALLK

In general, IC50 refers to the point on the concentration scale where inhibition reaches its midpoint. With `CN(CC(=O)N(Cc1ccc(C2CCCCC2)cc1)c1ccc(C(=O)NO)cc1)S(=O)(=O)c1c(F)c(F)c(F)c(F)c1F` [Compound 32, 4-(N-(4-cyclohexylbenzyl)-2-(2,3,4,5,6-pentafluoro-N-methylphenylsulfonamido)acetamido)-N-hydroxybenzamide], the “suppression of pSTAT3 (Y705)” value in [1] (Western blot, BTSCs) is given as “most suppression of pSTAT3 (Y705)”. The remaining activity at 5 µM came to 58.3% in series [2], 94.6% in series [3] and 101% in series [4]. Besides, the “% Enzyme activity relative to DMSO (control), c-Src” value in series [2] (setting [10]) is 54.21%. In addition, the “% Enzyme activity relative to DMSO (control), AKT1” value in series [3] (setting [10]) stood at 92.09%. Besides, the “% Enzyme activity relative to DMSO (control), JAK1” value in series [4] (setting [10]) came out at 97.99%. Also, the IC50 in series [5] was approximately 1.01 µM; in series [6], 100 to 3800 nM; in [7] (read-out: 73M IC50 (μM)), 1.52 µM; in series [9] (read-out: 30M IC50 (μM)) it was 1.14 µM; in [9] (setting [11]) it was 1.136 ± 0.009 µM; in [9] (read-out: IC50 BTSC 30M), 0.971 µM. In addition, the EC50 in series [6] is 66 to 1140 nM. The “toxicity in normal human cells” value in series [8] was “minimal toxicity”.
In the case of `CN(CC(=O)N(Cc1ccc(C2CCCCC2)cc1)c1ccc(C(=O)O)cc1)S(=O)(=O)c1c(F)c(F)c(F)c(F)c1F` [Compound 31, 4-(N-(4-cyclohexylbenzyl)-2-(2,3,4,5,6-pentafluoro-N-methylphenylsulfonamido)acetamido)benzoic acid], the pSTAT3 inhibition potency entry in [1] (0, 0.1, 0.5, 1.0 and 5.0 μM, Western blot) is given as “concentration-dependant decreases in pSTAT3 levels”. In series [1] (500 nM, Western blot, BTSCs), the pSTAT3 signalling entry is “completely silenced pSTAT3 signalling”. The “suppression of pSTAT3 (Y705)” value in series [1] (Western blot, BTSCs) was “most suppression of pSTAT3 (Y705)”. Further, the “pSTAT3 suppression, comparative Western blot” value in [1] (BTSC 73M, 1 μM inhibitor) is on record as “equipotent pSTAT3 suppression”. In addition, the remaining activity at 5 µM in [2] stood at 50.8%; in [3] it was 92.1%; in series [4], 101%. In addition, the IC50 is 0.531 µM in [5]; 100 to 3800 nM in series [6]; 1.03 ± 0.031 µM in series [7] (Table 2, BTSC 73M, alamarBlue, 72 hrs, read-out: IC50 (μM) 73M); 1.03 µM in series [7] (Table 4 library screen, alamarBlue, read-out: 73M IC50); 0.432 µM in series [9] (read-out: 30M IC50 (μM), Table 4 library screen, alamarBlue); 0.432 ± 0.022 µM in series [9] (setting [11]). Besides, the IC50 in series [9] (read-out: IC50 (μM) 30M, Table 2, BTSC 30M, alamarBlue, 72 hrs) is 0.432 ± 0.022 µM; in series [9] (read-out: IC50 BTSC 30M, Table 6, in parallel with other cancer lines) it was 0.5 µM. Also, the EC50 in series [6] lay in the range of 66 to 1140 nM. For the same molecule, in [8], the “toxicity in normal human cells” value is “minimal toxicity; also recorded: no toxicity”.

(Values after US9650399B2, “Salicylic acid derivatives, pharmaceutically acceptable salt thereof, composition thereof and method of use thereof” (The Governing Council of the University of Toronto, priority 2012, dated 2017).)
